Values quoted from earlier work as cited in patent US20220265684A1, “COMPOSITIONS AND METHODS FOR TREATING ULCERATIVE COLITIS” (9 METERS BIOPHARMA, INC., priority 2021, published 2022).

Details: after administration of 100 mg (1 tablet); Actarit PI

- AUC0-∞: 4560 ng·h/mL
- Cmax: 2240 ng/mL
SMILES: Nc1ccc(CC(=O)O)cc1 [4-APAA, 4-aminophenylacetic acid]
